Consider seven molecules from PMC10177380 (Cancers, 2023).

Like-named read-outs stand apart in the source and are kept apart here. Marks after values point to notes of the source that are not given here.

One data set concerns HT29 colon. Also on record: method as in PMID 36296713, PMID 36142383. The note with it: cited from earlier work.
In a further data set the test system is A2780 ovarian. On the set-up: method as in PMID 36296713, PMID 36142383. The note with it: cited from earlier work.
In the next data set the test system is A431 skin. On the set-up: method as in PMID 36296713, PMID 36142383. As to conditions: cited from earlier work.
The next data set concerns BE2C neuroblastoma. Also on record: method as in PMID 36296713, PMID 36142383. The note with it: cited from earlier work.
The subject of another data set is multiple cell lines. Also on record: method as in PMID 36296713, PMID 36142383. The note with it: mean over all cell lines tested; cited from earlier work.
Another data set has as its system MIA pancreas. Also on record: method as in PMID 36296713, PMID 36142383. The note with it: cited from earlier work.
The test system of a further data set is H460 lung. On the set-up: method as in PMID 36296713, PMID 36142383. The note with it: cited from earlier work.
The subject of another data set is U87 glioblastoma. On the set-up: method as in PMID 36296713, PMID 36142383. As to conditions: cited from earlier work.
In the next data set the test system is SJG2 glioblastoma. On the set-up: method as in PMID 36296713, PMID 36142383. The note with it: cited from earlier work.
A further data set relates to MCF7 breast. On the set-up: method as in PMID 36296713, PMID 36142383. The note with it: cited from earlier work.
The subject of data set [1] is ADDP ovarian variant (cisplatin-resistant A2780 clone). Also on record: method as in PMID 36296713, PMID 36142383. As to conditions: cited from earlier work.
The test system of a further data set is Du145 prostate. On the set-up: method as in PMID 36296713, PMID 36142383. The note with it: cited from earlier work.
In a further data set the test system is MCF10A / Du145. Also on record: method as in PMID 36296713, PMID 36142383. The note with it: GI50 in MCF10A/GI50 in Du145, from data of previous studies; cited from earlier work.
The test system of data set [2] is HT29 colon cells. Nature of the data set: Mitochondrial membrane potential, TMRE-MtMP assay. The class given is cell-based, human. The note with it: treatment at GI50 concentration (FCCP positive control 20 μM). The text has this: To study the MtMP changes in treated cells, a TMRE-MtMP Assay Kit (Abcam, Cambridge, MA, USA) was used (see Supplementary Materials).
TMRE was used to stain HT29 colon cells, and treatment with the complexes and ligands was completed at each specific GI50 concentration. The MtMP changes detected are expressed as RFU. Additionally, lower RFU values correspond to a decline in mitochondrial activity. […]
dimethylthiazol-2-yl]-2,5-diphenyltetrazolium bromide) assay and absorbance was read at 540 nm. An eight-point dose response curve was produced from which the GI50 value was calculated, representing the drug concentration at which cell growth was inhibited by 50% based on the difference between the optical density values on day 0 and those at the end of drug exposure. […]
5. Mitochondrial Membrane Potential (MtMP)
In 96-well plates, 25,000 cells/mL of HT29 colon cells in DMEM were seeded. Cells were treated with a GI50 drug concentration for each complex. […]
washed with PBS and stained with 1 μM tetramethylrhodamine, ethyl ester (TMRE) and incubated for 30 min. TMRE was then removed, and cells were then re-washed with PBS (0.2% BSA), after which phenol red free media was added. The plates were directly scanned to measure fluorescence (expressed as RFU), using the Glo-Max®-Multimode […]
microplate reader (Promega Corporation, Alexandra, VIC, Australia) at an […]
For the positive control, 20 μM carbonyl cyanide 4-(trifluoromethoxy) phenylhydrazone (FCCP)) was added to the cells and incubated for 10 min. The cells were washed with PBS (0.2% BSA) and stained with TMRE (1 μM) for 30 min; this was removed and phenol red free media was added, and the final solution was scanned as mentioned above. […]

Data set [3] deals with HT29 colon cells. Also on record: method as in PMID 36296713, PMID 36142383. As to conditions: cited from earlier work.
The subject of data set [4] is non-tumour derived MCF10A breast line. On the set-up: method as in PMID 36296713, PMID 36142383. As to conditions: cited from earlier work.
Details of data set [5]: method as in PMID 24951889. The note with it: water, from the literature; cited from earlier work.
Data set [6] deals with HT29 colon cells. As to the kind of experiment: ROS production, DCFDA/H2DCFDA cellular ROS assay. The class given is cell-based, human. As to conditions: treatment at GI50 concentration (TBHP positive control 20 μM). How it is done:
To determine the presence of ROS in treated cells, a DCFDA/H2DCFDA-cellular ROS Assay Kit (Abcam, Cambridge, MA, USA) was utilised, as previously reported. The ROS potential of platinum(II) precursors and platinum(IV) scaffolds, which were determined using the same method, were also presented in this study for comparison.
Additionally, the ROS potential of the platinum(II) precursors and platinum(IV) scaffolds was determined previously and was presented here to allow for comparison (Table 10 and Figure 13). […] Treatment with the complexes and ligands was completed at each specific GI50 concentration. […]
dimethylthiazol-2-yl]-2,5-diphenyltetrazolium bromide) assay and absorbance was read at 540 nm. An eight-point dose response curve was produced from which the GI50 value was calculated, representing the drug concentration at which cell growth was inhibited by 50% based on the difference between the optical density values on day 0 and those at the end of drug exposure.
4. Reactive Oxygen Species (ROS) Potential
A total of 25,000 cells/mL of HT29 cells in DMEM were seeded in 96-well plates. Cells were washed with 1X kit buffer, and then stained with 25 μM 2’,7’-dichlorofluorescein diacetate (DCFH-DA) and incubated for 45 min. DCFH-DA was then removed, and cells were then re-washed with 1X kit buffer, after which phenol red free media was added.
Cells were then treated with a GI50 drug concentration for each complex. The plates were directly scanned to measure fluorescence (relative fluorescence units (RFU)) at different time points using the Glo-Max®-Multimode microplate reader (Promega Corporation, Alexandra, VIC, Australia) at an excitation/emission of 485/535 nm. […]

Usually GI50 stands for the concentration giving 50% growth inhibition.

As for `O=C1[O][Pt]2([NH][C@@H]3CCCC[C@H]3[NH]2)[O]C1=O` (relative stereo) [Oxaliplatin, trans-L-(1R,2R-diaminocyclohexane) oxalatoplatinum(II)], the GI50 is 900 ± 200 nM with HT29 colon; 160 ± 100 nM in the data set with A2780 ovarian; 4100 ± 500 nM with A431 skin; 900 ± 200 nM in the data set with BE2C neuroblastoma; 1460 ± 320 nM in the data set with multiple cell lines; 900 ± 200 nM in the data set on MIA pancreas. The GI50 is 1600 ± 100 nM in the data set with H460 lung; 1800 ± 200 nM in the data set on U87 glioblastoma; 3000 ± 1200 nM with SJG2 glioblastoma; 500 ± 100 nM in the data set with MCF7 breast; 800 ± 100 nM in data set [1]; 2900 ± 400 nM in the data set on Du145 prostate.

Consider `Cc1cc2c3c4c1=CC=C[N]4[Pt+2]([OH])([OH])[N]3C=CC=2.N[C@H]1CCCC[C@@H]1N` [5MESS(IV)(OH)2], for which the GI50 with HT29 colon was 60 ± 6 nM; with A2780 ovarian, 240 ± 9 nM; in the data set with A431 skin, 360 ± 58 nM; in the data set with BE2C neuroblastoma, 1400 ± 300 nM; in the data set with multiple cell lines, 443 ± 81 nM; in the data set with MIA pancreas, 160 ± 29 nM. Also, the GI50 is 60 ± 5 nM in the data set on H460 lung; 900 ± 58 nM in the data set on U87 glioblastoma; 640 ± 70 nM in the data set on SJG2 glioblastoma; 1200 ± 390 nM with MCF7 breast; 130 ± 22 nM in data set [1]; 41 ± 5 nM in the data set with Du145 prostate. Besides, the GI50 in data set [4] was 130 ± 19 nM. In addition, the “Selectivity Cytotoxicity Index (SCI)” value in the data set on MCF10A / Du145 is given as 3.17. The “MtMP Changes” value with HT29 colon cells [2] (HT29, 24 h) was 301 ± 14 RFU; with HT29 colon cells [2] (HT29, 48 h) it was 214 ± 9 RFU; with HT29 colon cells [2] (HT29, 72 h) it was 198 ± 4 RFU. Also, the “ROS Production” value is recorded as 234 ± 1 RFU with HT29 colon cells [3] (HT29, 24 h); 323 ± 9 RFU in the data set on HT29 colon cells [3] (HT29, 48 h); 335 ± 2 RFU in the data set on HT29 colon cells [3] (HT29, 72 h).

For `Cc1c(C)c2c3c4c1=CC=C[N]4[Pt+2]([OH])([OH])[N]3C=CC=2.N[C@H]1CCCC[C@@H]1N` [56MESS(IV)(OH)2], the 50% growth inhibitory concentration (GI50) is 36 ± 7 nM in the data set with HT29 colon; 59 ± 7 nM with A2780 ovarian; 120 ± 22 nM with A431 skin; 240 ± 22 nM with BE2C neuroblastoma; 151 ± 50 nM with multiple cell lines; 43 ± 2.5 nM in the data set with MIA pancreas. Also, the GI50 was 190 ± 150 nM in the data set on H460 lung; 190 ± 23 nM with U87 glioblastoma; 210 ± 45 nM in the data set on SJG2 glioblastoma; 480 ± 140 nM in the data set with MCF7 breast; 170 ± 120 nM in data set [1]; 15 ± 2.6 nM in the data set on Du145 prostate. In addition, the GI50 in data set [4] was 61 ± 7 nM. In the data set on MCF10A / Du145, the “Selectivity Cytotoxicity Index (SCI)” value is 4.07. Also, the “MtMP Changes” value in the data set on HT29 colon cells [2] (HT29, 24 h) came to 245 ± 16 RFU; in the data set with HT29 colon cells [2] (HT29, 48 h), 177 ± 11 RFU; in the data set on HT29 colon cells [2] (HT29, 72 h) it was 125 ± 12 RFU. In addition, the “ROS Production” value in the data set on HT29 colon cells [3] (HT29, 24 h) is 259 ± 3 RFU; in the data set with HT29 colon cells [3] (HT29, 48 h), 356 ± 11 RFU; in the data set on HT29 colon cells [3] (HT29, 72 h), 438 ± 7 RFU.

Take `N.N.O=C([O-])C1(C(=O)[O-])CCC1.[Pt+2]` [Carboplatin, cis-diammine(1,1-cyclobutanedicarboxylato) platinum(II)]: the GI50 was > 50000 nM with HT29 colon; 9200 ± 2900 nM in the data set on A2780 ovarian; 24000 nM in the data set with A431 skin; 19000 nM with BE2C neuroblastoma; 32200 nM in the data set with multiple cell lines; > 50000 nM with MIA pancreas. The GI50 is 14000 nM with H460 lung; > 50000 nM in the data set on U87 glioblastoma; 5700 ± 200 nM in the data set with SJG2 glioblastoma; > 50000 nM in the data set on MCF7 breast; > 50000 nM in [1]; 15000 nM in the data set with Du145 prostate. Further, in data set [4], the GI50 is > 50000 nM. For the same molecule, the “Selectivity Cytotoxicity Index (SCI)” value with MCF10A / Du145 is 3.33. Moreover, the Solubility in data set [5] is recorded as 11.7 * mg/mL.

In the case of `N#CC(C#N)=NNc1ccc(OC(F)(F)F)cc1` [FCCP, carbonyl cyanide 4-(trifluoromethoxy) phenylhydrazone], the “MtMP Changes” value in the data set on HT29 colon cells [2] (HT29, 24 h) worked out at 194 ± 10 RFU; in the data set with HT29 colon cells [2] (HT29, 48 h), 143 ± 5 RFU; in the data set with HT29 colon cells [2] (HT29, 72 h), 80 ± 5 RFU.

As for `N[C@H]1CCCC[C@@H]1N.[OH][Pt+2]1([OH])[N]2C=CC=c3ccc4c(c32)[N]1C=CC=4` [PHENSS(IV)(OH)2], the GI50 in the data set with HT29 colon is 710 ± 300 nM; with A2780 ovarian it was 800 ± 84 nM; with A431 skin, 4300 ± 530 nM; with BE2C neuroblastoma it was 3000 ± 530 nM; in the data set on multiple cell lines, 3320 ± 880 nM; in the data set with MIA pancreas, 3400 ± 2200 nM. Besides, the GI50 in the data set with H460 lung was 1700 ± 200 nM; with U87 glioblastoma, 4900 ± 610 nM; with SJG2 glioblastoma, 1700 ± 350 nM; in the data set with MCF7 breast, 16000 nM; in data set [1], 1300 ± 350 nM; in the data set with Du145 prostate, 310 ± 92 nM. For the same molecule, the GI50 in [4] was 1700 ± 200 nM. In the data set on MCF10A / Du145, the “Selectivity Cytotoxicity Index (SCI)” value was 5.48. For the same molecule, the “MtMP Changes” value was found to be 321 ± 17 RFU with HT29 colon cells [2] (HT29, 24 h); 241 ± 10 RFU in the data set on HT29 colon cells [2] (HT29, 48 h); 216 ± 8 RFU with HT29 colon cells [2] (HT29, 72 h). For the same molecule, the “ROS Production” value is listed as 144 ± 5 RFU with HT29 colon cells [3] (HT29, 24 h); 273 ± 4 RFU with HT29 colon cells [3] (HT29, 48 h); 303 ± 1 RFU in the data set with HT29 colon cells [3] (HT29, 72 h).

On to `CC(C)(C)OO` [TBHP, tert-butyl hydroperoxide], for which the “ROS Production” value worked out at 658 ± 28 RFU in the data set on HT29 colon cells [6] (HT29, 24 h); 504 ± 15 RFU with HT29 colon cells [6] (HT29, 48 h); 497 ± 10 RFU in the data set on HT29 colon cells [6] (HT29, 72 h).
